Measured values from the NIST ThermoML archive (doi:10.1016/j.jct.2012.01.007).
“And” between values parts separate entries of the source, which are not always exact repeats. Equal entries are not always repeated. ± gives the expanded uncertainty stated by the source.

Assay: osmotic coefficient (dimensionless); mn = molality of the nth substance listed, in mol/kg
Settings: 298.15 K, Liquid, isopiestic method

CCCC[n+]1ccc(N(C)C)cc1.F[B-](F)(F)F [4-(dimethylamino)-1-butylpyridinium tetrafluoroborate] + CCO
Settings	osmotic coefficient
m1 = 0	1 ± 0.15
m1 = 0.3225	0.606 ± 0.096
m1 = 0.333	0.526 ± 0.085
m1 = 0.3357	0.6 ± 0.095
m1 = 0.3459	0.506 ± 0.083
m1 = 0.4422	0.468 ± 0.073
m1 = 0.4806	0.429 and 0.445
m1 = 0.4942	0.418 ± 0.067
m1 = 0.5101	0.42 and 0.404
m1 = 0.6548	0.383 ± 0.061
m1 = 0.7459	0.394 ± 0.063
m1 = 0.8064	0.365 ± 0.059
m1 = 0.9658	0.343 ± 0.057
m1 = 1.075	0.327 ± 0.055
m1 = 1.154	0.339 ± 0.056
m1 = 1.195	0.318 ± 0.053
m1 = 1.289	0.325 ± 0.054
m1 = 1.393	0.322 ± 0.054
m1 = 1.613	0.321 ± 0.054
m1 = 1.945	0.304 ± 0.052
m1 = 2.716	0.316 ± 0.053
m1 = 3.676	0.336 ± 0.056
m1 = 3.763	0.326 ± 0.055
m1 = 5.468	0.283 ± 0.05
m1 = 7.248	0.218 ± 0.043

CCCCC[n+]1ccc(N(C)C)cc1.F[B-](F)(F)F [4-(dimethylamino)-1-pentylpyridinium tetrafluoroborate] + CCO
Settings	osmotic coefficient
m1 = 0	0.999 ± 0.15
m1 = 0.4148	0.513 ± 0.079
m1 = 0.4808	0.455 ± 0.071
m1 = 0.5469	0.468 ± 0.073
m1 = 0.568	0.397 ± 0.074
m1 = 0.6869	0.376 ± 0.061
m1 = 0.8468	0.359 ± 0.058
m1 = 0.9582	0.335 ± 0.055
m1 = 1.291	0.38 ± 0.061
m1 = 1.757	0.331 ± 0.055
m1 = 1.899	0.327 ± 0.055
m1 = 2.515	0.327 ± 0.055
m1 = 4.304	0.283 ± 0.049
m1 = 5.313	0.288 ± 0.05
m1 = 7.334	0.301 ± 0.051

CCCCCC[n+]1ccc(N(C)C)cc1.F[B-](F)(F)F [4-(dimethylamino)-1-hexylpyridinium tetrafluoroborate] + CCO
Settings	osmotic coefficient
m1 = 0	0.999 ± 0.15
m1 = 0.3863	0.523 ± 0.081
m1 = 0.4915	0.435 ± 0.068
m1 = 0.6139	0.417 ± 0.066
m1 = 0.7149	0.447 ± 0.07
m1 = 0.7716	0.429 ± 0.068
m1 = 1.225	0.413 and 0.431
m1 = 1.39	0.375 ± 0.06
m1 = 1.495	0.39 ± 0.062
m1 = 1.778	0.35 ± 0.11
m1 = 1.799	0.409 ± 0.12
m1 = 2.283	0.376 ± 0.061
m1 = 2.753	0.378 ± 0.061
m1 = 3.718	0.351 ± 0.057
m1 = 4.128	0.37 ± 0.06
m1 = 5.581	0.384 ± 0.062
